Experimental data reported in ChEMBL document CHEMBL3817750, “New hydrazones of 5-nitro-2-furaldehyde with adamantanealkanohydrazides: synthesis and in vitro trypanocidal activity” (Medchemcomm, 2016).

Legend:
Trypanosoma brucei = experiment: Trypanocidal activity against bloodstream form of Trypanosoma brucei 427 assessed as reduction in parasitic growth after 48 hrs by Alamar blue assay; assay type: functional, organism-based; conditions: Trypanosoma brucei, 427, 48 h
L6 = experiment: Cytotoxicity against rat L6 cells after 6 days by Alamar blue assay; assay type: cell-based
[1] = Selectivity index, ratio of IC50 for rat L6 cells to IC50 for bloodstream form of Trypanosoma brucei 427; assay type: toxicity, cell-based; conditions: read-out: Ratio IC50
Trypanosoma cruzi = experiment: Trypanocidal activity against epimastigote form of Trypanosoma cruzi CL Brener assessed as reduction in parasitic growth after 4 days by Alamar blue assay; assay type: functional; conditions: 96 h
[2] = Selectivity index, ratio of IC50 for rat L6 cells to IC50 for epimastigote form of Trypanosoma cruzi CL Brener; assay type: toxicity, cell-based; conditions: read-out: Ratio IC50
[3] = Rattus norvegicus, L6, 144 h, read-out: IC50

| SMILES | IC50 (Trypanosoma brucei) [nM] | IC90 (Trypanosoma brucei) [nM] | IC50 (L6; [3]) [nM] | selectivity ratio [1] | IC50 (Trypanosoma cruzi) [nM] | IC90 (Trypanosoma cruzi) [nM] | selectivity ratio [2] | IC50 (L6; l6) |
| --- | --- | --- | --- | --- | --- | --- | --- | --- |
| O=C(CCC12CC3CC(CC(C3)C1)C2)N/N=C/c1ccc([N+](=O)[O-])o1 | 386 | 560 | 16000 | 41 | 348 | 719 | 56 |  |
| O=C(N/N=C/c1ccc([N+](=O)[O-])o1)C1C2CC3CC(C2)CC1C3 (stereo unspecified) | 231 | 599 | 19200 | 83 | 844 | 1960 | 23 |  |
| O=C(CC12CC3CC(C1)CC(C1CCCC1)(C3)C2)N/N=C/c1ccc([N+](=O)[O-])o1 | 306 | 459 | 8790 | 29 | 178 | 329 | 49 |  |
| O=C(CCC12CC3CC(C1)CC(c1ccccc1)(C3)C2)N/N=C/c1ccc([N+](=O)[O-])o1 | 90 | 167 | 4590 | 51 | 238 | 654 | 17 |  |
| CCOC(=O)CC12CC3CC(CC(CC(=O)N/N=C/c4ccc([N+](=O)[O-])o4)(C3)C1)C2 | 223 | 643 | 7490 | 34 | 204 | 478 | 32 |  |
| O=C(N/N=C/c1ccc([N+](=O)[O-])o1)C12CC3CC(C1)CC(C1CCCC1)(C3)C2 | 216 | 425 | 11000 | 51 | 225 | 528 | 49 |  |
| O=C(N/N=C/c1ccc([N+](=O)[O-])o1)C12CC3CC(C1)CC(C(=O)N/N=C/c1ccc([N+](=O)[O-])o1)(C3)C2 | 75 | 98 |  |  | > 2000 | > 2000 |  | ND(Insoluble) |
| O=C(CCC12CC3CC(CC(C3)C1)C2)N/N=C/c1ccco1 | > 30000 | > 30000 | > 30000 |  | 6090 | 15700 |  |  |
| O=C(CC12CC3CC(CC(C3)C1)C2)N/N=C/c1ccc([N+](=O)[O-])o1 | 242 | 553 | 3170 | 13 | 205 | 568 | 15 |  |
| O=C(CCC12CC3CC(C1)CC(C1CCCC1)(C3)C2)N/N=C/c1ccc([N+](=O)[O-])o1 | 158 | 322 | 4600 | 29 | 140 | 803 | 33 |  |
| O=C(N/N=C/c1ccco1)C12CC3CC(CC(C3)C1)C2 | > 35000 | > 35000 | > 35000 |  | > 35000 | > 35000 |  |  |
| O=C(CCC1C2CC3CC(C2)CC1C3)N/N=C/c1ccc([N+](=O)[O-])o1 (stereo unspecified) | 122 | 177 | 2380 | 20 | 206 | 513 | 12 |  |
| O=C(N/N=C/c1ccc([N+](=O)[O-])o1)C12CC3CC(CC(C3)C1)C2 | 851 | 1040 | 7720 | 9 | 561 | 992 | 14 |  |
| O=C(CC12CC3CC(CC(C3)C1)C2)N/N=C/c1ccco1 | > 35000 | > 35000 | > 35000 |  | > 35000 | > 35000 |  |  |
| O=C(CC12CC3CC(C1)CC(c1ccccc1)(C3)C2)N/N=C/c1ccc([N+](=O)[O-])o1 | 221 | 573 | 5020 | 23 | 91 | 180 | 55 |  |
| O=C(CC1C2CC3CC(C2)CC1C3)N/N=C/c1ccc([N+](=O)[O-])o1 (stereo unspecified) | 126 | 207 | 3260 | 26 | 202 | 381 | 16 |  |
| O=C(N/N=C/c1ccc([N+](=O)[O-])o1)C12CC3CC(C1)CC(c1ccccc1)(C3)C2 | 244 | 406 | 11400 | 47 | 368 | 676 | 31 |  |
